What was measured:
[1] = compared with phosphocreatine; cited from earlier work
[2] = test system: Trem-2 deficient macrophages; assay: Supplementation of Trem2-deficient macrophages with creatine analogs; type: cell-based, mouse; conditions: supplemented media
[3] = test system: Trem2−/− BMDMs; assay: ER stress in BMDM (LC3 and phospho-Akt immunoblots); type: cell-based, mouse; conditions: Trem2−/− BMDMs compared with WT BMDMs, 10% LCCM
Description: (§1) To prepare bone marrow-derived macrophages, femurs and tibias were removed and flushed with PBS. Cells were counted and plated at 2.5×10^6 cells/100 mm petri dish in RPMI supplemented with Glutamax, penicillin/streptomycin, non-essential amino acids, pyruvate, and 10% heat inactivated fetal bovine serum (complete RPMI) and 10% L-cell conditioned medium (LCCM). Cells were cultured for 4-5 days before use. Microglia were prepared as previously described (Wang et al., 2015). Briefly, brains were dissociated by using a Neural Tissue Dissociation Kit (T) (Miltenyi Biotech Cat. Number 130-093-231). Cell suspensions were labeled with anti-mouse CD45 magnetic beads and isolated on LS columns (Miltenyi Biotic). Cells were plated onto poly-L-lysine coated polystyrene plates in complete RPMI supplemented with 20% LCCM and 10 ng/ml human TGF-β. Media was changed on day 3 post plating and cells were used 5-7 days post plating. ATP concentrations were determined with an ATP Determination Kit (Invitrogen).
(§2) BMDM or microglia were lysed in RIPA buffer (50 mM Tris, 150 mM NaCl, 1% SDS, and 1% Triton X100) containing PMSF, leupeptin, activated sodium orthovanidate, apoprotinin, and phosphatase inhibitor cocktail 3 (Sigma Aldrich Cat. Number P0044). Lysates were flash frozen on dry ice and stored at −80° C. until use. Lysates were thawed and 4× LDS running buffer and 10% β-mercaptoethanol were added. […]

[4] = test system: Trem2−/− BMDMs; assay: Autophagic flux in BMDM with lysosomal inhibitor (LC3 immunoblot); type: cell-based, mouse; conditions: bafilomycin for 5 hours prior to harvest
Description: as §1, §2

[5] = test system: Trem2-deficient BMDMs; assay: Extracellular acidification rate (ECAR), XF96 Extracellular Flux Analyzer; type: cell-based, mouse; conditions: overnight 0.5% LCCM, 10 mM cyclocreatine
Description: as §1, with “(Invitrogen). For real-time analysis of extracellular acidification rates (ECAR) macrophages were analyzed using an XF96 Extracellular Flux Analyzer (Agilent Technologies). Cells were incubated overnight in complete RPMI in the indicated concentration of LCCM with or without cyclocreatine (10 mM). […]” for “(Invitrogen).”

[6] = test system: Trem2−/− BMDMs; assay: Immunoblots for autophagy (LC3, p62) and mTOR signaling in BMDM in limiting CSF1 with rescuing agent; type: cell-based, mouse; conditions: Trem2-deficient BMDMs, overnight 0.5% LCCM, 5 mM cyclocreatine
Description: as §1, §2

[7] = test system: Trem2−/− BMDM; assay: Viability of BMDM in 0.5% LCCM; type: cell-based, mouse; conditions: Trem2-deficient BMDMs, 40 hours in 0.5% LCCM
[8] = test system: Trem2−/− 5XFAD mice; assay: Dietary cyclocreatine in Trem2−/− 5XFAD mice: TEM and confocal microscopy of brain; type: in vivo, mouse
Excerpt: (§3) The generation of Trem2^−/− and Trem2^−/− SXFAD mice has been described previously (Oakley et al., 2006; Turnbull et al., 2006; Wang et al., 2015). All mice were on a C57BL/6 background. Age and sex matched mice were used for all experiments; experimental cohorts of mice were cohoused from birth to control for the microbiota. For in vivo cyclocreatine treatment 10-week old mice were put on cyclocreatine-containing water, treatment was continued until mice reached 8 months of age (Santa Cruz SC-217964 S). Desired intake of cyclocreatine was approximately 0.28 mg/g of body weight/day, which is approximately the same as the standard creatine dose used in humans of 285 mg/kg of body weight/day (Kurosawa et al., 2012). Cyclocreatine was administered in drinking water at a final concentration of 2.33 mg/ml. The Institutional Animal Care and Use Committee at Washington University in St. Louis approved all protocols used in this study.
For quantitation of multivesicular/multilamellar structures, 30 cells that were cross-sectioned through the nucleus (indicating cross-section through the middle of cell) were randomly chosen, and images of each cell were taken at 6,000× and 20,000× magnification. The cross-sectional area of each of the multivesicular structures were determined using Image J 1.38 g (National Institutes of Health, USA, customized for AMT images). Data is expressed as the 1) total number of a multivesicular/multilammelar structures per cross-sectional area of cytosol and 2) the total cross-sectional area of multivesicular/multilamellar structures per area of cytosol.
Confocal microscopy analysis was performed as previously described (Wang et al., 2015). Briefly, mice were anesthetized with ketamine/xylazine and perfused with ice-cold PBS containing 1 U/ml of heparin. Brains were fixed in 4% PFA overnight at 4° C. rinsed in PBS and incubated overnight at 4° C. in 30% sucrose before freezing in a 2:1 mixture of 30% sucrose and optimal cutting temperature compound. Serial 40 μm coronal sections were cut on a cryo-sliding microtome. Floating sections from 1.1 mm Bregma to 0.8 mm Bregma for cortical imaging or slides with fixed human sections were stained with lba-1 (Waco Chemicals Cat. Number 019-19741) overnight at 4° C. followed by staining with anti-rabbit IgG DyLight 549 (Vector Laboratories Cat. Number DI-1549) and methoxy-X04 (Tocris Cat. Number 4920) for 1 hour at RT. Finally, sections were stained for with anti-LC3 Alexa 488±anti-cleaved caspase 3 (Cell Signaling Technologies Cat. Number 13082 and 9602). Images were collected using a Nikon Al Rsi+ confocal microscope. Images were then processed with Imaris 7.7 (Bitplane).
Positions of microglia and positions and volumes of plaques within z-stacks were derived from analysis in Imaris, and microglia-plaque association was determined using automated scripts in Matlab. Briefly, each plaque in the z-stack was modeled as an idealized sphere with the same volume and center of mass. Microglia density within 15 μm of the plaque surface was determined by isolating the voxels of the image that fall within 15 μm of the edge of the idealized plaque. The number of microglia contained in these voxels was divided by the total volume of those voxels to obtain density for a single plaque. Densities of all plaques in a z-stack were averaged together, and the resulting values were averaged together for all z-stacks corresponding to a single animal.
To measure total plaque area, brain sections were stained with methoxy X04. Images were collected using a Nikon Eclipse 80i microscope. For quantitative analysis, images were converted to 8-bit greyscale and stitched using the “Stitching” plugin in ImageJ. Cortex (˜1.1 mm Bregma to 0.8 mm Bregma) and hippocampus (˜−1.7 Bregma to −2.4 Bregma) were determined by manual selection. […]

[9] = test system: 5XFAD mice; assay: Dietary cyclocreatine in 5XFAD mice: confocal microscopy of brain; type: in vivo, mouse; conditions: cyclocreatine-treated 5XFAD mice vs untreated Trem2−/− 5XFAD mice
Excerpt: as §3
Confocal microscopy analysis was performed as previously described (Wang et al., 2015). Briefly, mice were anesthetized with ketamine/xylazine and perfused with ice-cold PBS containing 1 U/ml of heparin. Brains were fixed in 4% PFA overnight at 4° C. rinsed in PBS and incubated overnight at 4° C. in 30% sucrose before freezing in a 2:1 mixture of 30% sucrose and optimal cutting temperature compound. […]

[10] = test system: microglia from Trem2−/− 5XFAD mice; assay: Immunoblots of microglia sorted ex vivo from cyclocreatine-treated mice; type: in vivo, mouse; conditions: microglia isolated ex vivo, cyclocreatine vs untreated
Excerpt: as §3
Microglia were isolated from the indicated animals as previously described (Wang et al., 2015). CD45^+, CD11 b^+, F4/80^+ (Biolegend Cat. Number 103134, eBioscience Cat. Numbers 11-0112 and 17-4801) cells in the brain were fluorescence-activated cell-sorted (FACS) directly into RLT-plus lysis buffer for microarray or 2% FBS in PBS for TEM or immunoblot lysates. For microarray RNA extraction was performed using a RNeasy micro kit (QIAGEN). […]

[11] = test system: creatine kinase; conditions: in vitro and in vivo; cited from earlier work
[12] = cited from earlier work
[13] = Trem2−/− 5XFAD mice, cyclocreatine in drinking water from 10 weeks to 8 months
[14] = Trem2−/− 5XFAD mice, cyclocreatine vs untreated
[15] = cyclocreatine treated Trem2−/− 5XFAD mice

phosphocyclocreatine [cyclocreatine phosphate]
stability of the phosphorous-nitrogen (P N) bond [1]: more stable than that of phosphocreatine

phosphocreatine
autophagy [2]: prevent | cell death [2]: prevent | metabolic activity / metabolic capacity [2]: rescue

tunicamycin
Akt S473 phosphorylation [3]: less | LC3II/LC3I ratios [3]: greater

CO/C1=C\C(C)=C\[C@@H](C)[C@@H](O)[C@@H](C)C/C(C)=C/C=C/[C@H](OC)[C@@H]([C@@H](C)[C@@H](O)[C@H](C)[C@@]2(O)C[C@@H](O)[C@H](C)[C@@H](C(C)C)O2)OC1=O [bafilomycin, Bafilomycin A1]
LC3II [4]: greatly increased

NC(=O)c1ccc[n+]([C@@H]2O[C@H](COP(=O)([O-])O)[C@@H](O)[C@H]2O)c1 [NMN, nicotinamide mononucleotide]
autophagy [2]: prevent | cell death [2]: prevent | metabolic activity / metabolic capacity [2]: rescue

NC1=NCCN1CC(=O)O [cyclocreatine, 1-carboxymethyl-2-iminoimidazolidine]
ECAR [5]: improved | autophagy (LC3 immunoblot) [6]: less autophagy | mTOR signaling [6]: increased mTOR signaling | viability [7]: increased | autophagy [2]: prevent | cell death [2]: prevent | metabolic activity / metabolic capacity [2]: rescue | engulfment of plaque particulates by microglia ([8]; 8 months of age): did not moderate | number of LC3 puncta/cell [8, 13]: significantly decreased | percentage of LC3+ microglia [8, 13]: significantly decreased | percentage of cleaved caspase-3+ microglia [8, 13]: significantly decreased | multivesicular/multilamellar structures in microglia (TEM) ([8]; Trem2−/− 5XFAD mice, cyclocreatine in drinking water from 10 weeks to 8 months, vs untreated): significantly fewer | clustering of microglia around plaques [8, 14]: significantly increased | number of microglia/high powered field (HPF) in plaque-bearing regions of the cortex [8, 14]: significantly increased | plaque-associated neurite dystrophy [8, 14]: significantly reduced | plaque accumulation ([8]; cortex and hippocampus, 8 months of age): did not moderate | density of plaques (methoxy-X04 staining intensity) [8, 15]: resembled that of plaques in 5XFAD mice | plaque shape complexity [8, 15]: not significantly altered | Spp1+ microglia ([8]; cyclocreatine-treated Trem2−/− 5XFAD mice vs untreated Trem2−/− 5XFAD mice): significantly more | Spp1+ microglia [9]: significantly more | autophagy (LC3II/LC3I ratio) [10]: significantly limited | microglial mTOR signaling [10]: restored | phosphorylation by creatine kinase in the forward reaction [11]: phosphorylated efficiently | accumulation in the brain ([12]; mouse brain in vivo): can accumulate and function as a phosphagen in the mouse brain | transport across membranes ([12]; mouse, in vivo): passively transported across membranes

From US12226382B2, “Methods for treating microglial dysfunction” (Washington University, priority 2017, dated 2025)
